# Experimental data taken from ChEMBL document CHEMBL5523667, “Blood-stage antimalarial activity, favourable metabolic stability and in vivo toxicity of novel piperazine linked 7-chloroquinoline-triazole conjugates” (Eur J Med Chem, 2024).
# Activity calls are given as the source filed them. No cut-off for these calls is given here.
# Key:
# Hemozoin = experiment: Inhibition of beta-hematin formation in Plasmodium falciparum by UV-visible SpectraMax P340 plate reader analysis
# Plasmodium falciparum [1] = experiment: Resistance index, ratio of IC50 for antimalarial activity against chloroquine-resistant Plasmodium falciparum K1 to IC50 for antimalarial activity against chloroquine-sensitive Plasmodium falciparum NF54; assay type: functional
# Plasmodium falciparum [2] = experiment: Antimalarial activity against chloroquine-resistant Plasmodium falciparum K1 assessed as inhibition of parasite growth by lactate dehydrogenase assay; assay type: functional, organism-based
# [3] = Cytotoxicity against CHO cells assessed as reduction in cell viability by MTT assay; assay type: toxicity, cell-based; details: Chinese hamster (Cricetulus griseus)
# Plasmodium falciparum [4] = experiment: Antimalarial activity against ring stage chloroquine-sensitive Plasmodium falciparum 3D7 assessed as inhibition of parasite growth by SYBR green I dye based assay; assay type: functional, organism-based
# Plasmodium falciparum [5] = experiment: Antimalarial activity against ring stage chloroquine-resistant Plasmodium falciparum RKL9 assessed as inhibition of parasite growth by SYBR green I dye based assay; assay type: functional, organism-based
# Falcipain 2 [6] = target: T1, Falcipain 2 (Plasmodium falciparum, UniProt Q9N6S8); experiment: Inhibition of N-terminal 6His-tagged recombinant Plasmodium falciparum FP2 expressed in Escherichia coli M15 using Z-Phe-Arg-AMC as substrate measured after 30 mins by microplate reader analysis
# T1 sequence (Q9N6S8 whole entry): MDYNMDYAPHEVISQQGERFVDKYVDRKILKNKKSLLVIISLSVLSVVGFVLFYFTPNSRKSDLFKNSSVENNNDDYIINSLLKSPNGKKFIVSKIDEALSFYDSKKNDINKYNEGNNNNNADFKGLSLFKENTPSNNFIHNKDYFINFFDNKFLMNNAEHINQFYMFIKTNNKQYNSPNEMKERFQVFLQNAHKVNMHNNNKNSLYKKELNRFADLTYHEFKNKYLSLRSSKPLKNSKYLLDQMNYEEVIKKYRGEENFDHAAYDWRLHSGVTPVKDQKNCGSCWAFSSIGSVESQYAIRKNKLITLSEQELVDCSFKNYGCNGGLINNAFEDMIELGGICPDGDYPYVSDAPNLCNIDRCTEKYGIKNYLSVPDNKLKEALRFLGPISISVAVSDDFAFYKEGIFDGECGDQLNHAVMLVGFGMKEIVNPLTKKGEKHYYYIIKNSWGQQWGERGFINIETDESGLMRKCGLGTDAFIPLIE
# Falcipain 2 [7] = target: T1, Falcipain 2; experiment: Competitive inhibition of N-terminal 6His-tagged recombinant Plasmodium falciparum FP2 expressed in Escherichia coli M15 assessed as inhibition constant using Z-Phe-Arg-AMC as substrate measured after 30 mins by microplate reader analysis
# Plasmodium falciparum [8] = experiment: Antimalarial activity against synchronized ring stage Plasmodium falciparum assessed as increase in undigested hemoglobin level at 1 to 4 uM incubated for 20 hrs by absorbance based analysis; assay type: functional, organism-based; details: dose 1-4 µM
# Plasmodium falciparum [9] = experiment: Antimalarial activity against synchronized ring stage Plasmodium falciparum assessed as accumulation of free heme at 1 to 4 uM incubated for 20 hrs by absorbance based analysis; assay type: functional, organism-based; details: dose 1-4 µM
# Plasmodium falciparum [10] = experiment: Antimalarial activity against synchronized-ring stage chloroquine-sensitive Plasmodium falciparum 3D7 assessed as growth progression defect from ring to schizont stage measured upto 60 hrs post-treatment by Giemsa staining based light microscopic analysis; assay type: functional, organism-based
# Plasmodium falciparum [11] = experiment: Antimalarial activity against synchronized-ring stage chloroquine-sensitive Plasmodium falciparum 3D7 assessed as reduction in parasitemia measured upto 60 hrs post-treatment by Giemsa staining based light microscopic analysis (reference value: 3.9 %); assay type: functional; parameters: scale not given: the % may be the effect or the level left
# Plasmodium berghei [12] = experiment: Antimalarial activity against Plasmodium berghei ANKA infected in female BALB/c mouse assessed as reduction in parasitemia at 50 mg/kg, ip measured on day 4 post infection by Giemsa staining based light microscopy (Rvb >17 %); assay type: functional; parameters: scale not given: the % may be the effect or the level left
# Plasmodium berghei [13] = experiment: Antimalarial activity against Plasmodium berghei ANKA infected in female BALB/c mouse assessed as reduction in parasitemia at 100 mg/kg, ip measured on day 4 post infection by Giemsa staining based light microscopy (Rvb >17 %); assay type: functional; parameters: scale not given: the % may be the effect or the level left
# Plasmodium berghei [14] = experiment: Antimalarial activity against Plasmodium berghei ANKA infected in female BALB/c mouse assessed as survival at 50 to 100 mg/kg, ip; assay type: functional; details: dose 50-100 mg/kg
# Plasmodium berghei [15] = experiment: Antimalarial activity against Plasmodium berghei ANKA infected in BALB/c mouse assessed as clearance of gametocytes at 50 to 100 mg/kg, ip p preadministered with phenylhydrazine for 3 days followed by compound administration and measured after 5 days by Giemsa staining based light microscopic analysis relative to control; assay type: functional, organism-based; details: dose 50-100 mg/kg, time 5.0 day
# [16] = Metabolic stability in mouse liver S9 fraction assessed as intrinsic clearance at 2 uM measured for 90 mins by LC-MS/MS analysis; assay type: ADME, subcellular; details: read-out: CLH
# [17] = Drug metabolism in human liver S9 fraction assessed as mono-hydroxylation mediated metabolite formation at 2 uM measured for 90 mins by LC-MS/MS analysis; assay type: ADME, subcellular; details: s9, 1.5 h
# [18] = Stability of the compound in simulated intestinal fluid at pH 6.8 at 1 uM measured after 120 mins by LC-MS/MS analysis; assay type: ADME; details: simulated gi fluid, pH 6.8, 2 h
# [19] = Toxicity in mouse assessed as total distance travelled at 100 mg/kg measured over 5 mins by open field arena test (reference value: 12.45 +/- 1.48 meter); assay type: organism-based; details: in vivo
# [20] = Toxicity in mouse assessed as effect on exploratory activity at 100 to 200 mg/kg measured over 5 mins by open field arena test; assay type: organism-based; details: in vivo, dose 100-200 mg/kg
# [21] = Toxicity in mouse assessed as latency time to the central area at 200 mg/kg by open field test (reference value: 106.48 +/- 43.19 sec); assay type: organism-based; details: in vivo, 43 s
# [22] = Toxicity in mouse assessed as grooming time at 200 mg/kg by open field test (reference value: 10.91 +/- 2.01 sec); assay type: organism-based; details: in vivo, 2 s
# [23] = Toxicity in mouse assessed as impairment of short-term memory at 100 mg/kg by novel object recognition test (reference value: 11.87 +/- 3.82 ); assay type: organism-based; details: in vivo
# [24] = Toxicity in mouse assessed as impairment of short-term memory at 200 mg/kg by novel object recognition test (reference value: 11.87 +/- 3.82 ); assay type: organism-based; details: in vivo
# [25] = Toxicity in mouse assessed as cell death in kidney at 100 to 200 mg/kg measured after 7 days by hematoxylin and eosin staining based analysis; assay type: organism-based; details: in vivo, 168 h, dose 100-200 mg/kg, time 7 day
# [26] = Toxicity against mouse assessed as effect on complete blood count at 100 to 200 mg/kg measured after 7 days by automated hematology analyzer; assay type: organism-based; details: in vivo, 168 h, dose 100-200 mg/kg, time 7 day
# [27] = Toxicity in mouse assessed as effect on water intake at 100 to 200 mg/kg measured for 7 days; assay type: organism-based; details: in vivo, 168 h, dose 100-200 mg/kg, time 7 day
# [28] = Toxicity in mouse assessed as cell necrosis in spleen at 100 to 200 mg/kg measured after 7 days by hematoxylin and eosin staining based analysis; assay type: organism-based; details: in vivo, 168 h, dose 100-200 mg/kg, time 7 day
compound,measurement,setting,value
O=C(Cn1cc(CN2CCN(c3ccnc4cc(Cl)ccc34)CC2)nn1)Nc1cccc([N+](=O)[O-])c1,IC50,Hemozoin,19900 nM
same,Ratio IC50,Plasmodium falciparum [1],1.95
same,IC50,Plasmodium falciparum [2],1890 nM
same,IC50,[3],148000 nM
same,IC50,Plasmodium falciparum [4],970 nM
same,IC50,Plasmodium falciparum [5],1800 nM
same,IC50,Falcipain 2 [6],8100 nM
same,Ki,Falcipain 2 [7],527 nM
same,Activity,Plasmodium falciparum [8],Active
same,Activity,Plasmodium falciparum [9],Active
same,Activity,Plasmodium falciparum [10],Active
same,Activity,Plasmodium falciparum [11],1.03%
same,Activity,Plasmodium berghei [12],>7%
same,Activity,Plasmodium berghei [13],100%
same,Survival,Plasmodium berghei [14],<=30 day
same,Activity,Plasmodium berghei [15],Active
same,microsomal CLint at 2 µM,[16],7.78 µL/min/mg
same,Drug metabolism,[17],Metabolite_Detected
same,Stability,[18],Stable
same,Activity,[19],11.53 m
same,Activity,[20],Non-Toxic
same,Time,[21],54.39 s
same,Time,[22],14.31 s
same,Activity,[23],3.6
same,Activity,[24],1.889
same,Activity,[25],Non-Toxic
same,Activity,[26],Non-Toxic
same,Activity,[27],Non-Toxic
same,Activity,[28],Non-Toxic
